Drawing on patent publication US20200206248A1, “COMBINED MEDICINAL PREPARATION FOR TREATING VIRAL INFECTIONS” (ALLA CHEM, LLC, priority 2017, published 2020), this text covers EC50, CC50 and body weight gain for two compounds.

In one data set the test system is HBV. Briefly: Anti-HBV activity in AD38 cells (secreted HBV DNA, qPCR). Format: cell-based. Conditions: 4-day incubation. As for the experimental part:
(§1) Anti-HBV activity of tenofovir of formulas 4f, 4h, 4k, 4m (test compounds) was evaluated in the cell line of human hepatoma AD38 carrying integrated HBV DNA with terminal repeats [Lander S, et. al, Antimicrobial Agents and Chemotherapy, 1997, pp. 1715-1720]. The cell line was made available by Dr. C. Seeger, Fox Chase Cancer Center, Philadelphia, Pa.). Simultaneously, cytotoxicity was evaluated.
The cells were cultivated in complete DMEM/F12 culture medium containing 2 mM of L-glutamine (Thermo Scientific, Cat #11320033), 10% fetal bovine serum (ThermoFisher Scientific, Cat#), 1% antibiotic-antimycotic solution (ThermoFisher Scientific, Cat#15240096), and 0.3 μg/ml of tetracycline (Sigma, Cat # T7660-5G). The cells were seeded into 96-well Corning Biocoat plates (Corning, Cat # 356407) in 225 μl of complete medium without tetracycline, 20 000 cells per well. The test compounds were dissolved first in DMSO (Sigma cat. D2650), then in DMEM/F12 medium, and 9 dilutions in log 3 steps (225 μl) were added to the cells. The final concentrations of test compounds varied from […] to 1 nM. […]
The technique of real-time quantitative polymerase chain reaction (RT-qPCR) was applied using the CFX96TM Real-Time System instrument (Bio-Rad, Hercules, Calif.) and polymerase AmpliTaq Gold® DNA Polymerase (Applied Biosystems®). […]
The fluorescent signal was read at the end of each cycle. […]
(In general: Quantitative PCR measures a nucleic acid by following its amplification.)

For data set [1], the system named is NL4.3 HIV strain (NL4.3-GFP). Briefly: Anti-HIV activity in SupT1 cells infected with NL4.3-GFP. The data set is classed as cell-based. Particulars: read after 45 hours. As for the experimental part:
(§2) The anti-HIV activity of active ingredients (test compounds) was evaluated using SupT1 cells. The cells were infected with the NL4.3 HIV strain carrying a gene of green fluorescence protein (NL4.3-GFP). The virus preparation was obtained by transfection of 293T cells of proviral DNA. Forty-eight hours after the transfection, the preparation was frozen and stored until use. To enhance the infection efficiency, the suspension of SupT1 cells was precipitated from the infection mixture by centrifugation. Test compounds were added to the cells immediately before virus addition. After a 2-hour incubation, the infection mixture was replaced by fresh culture medium with test compounds. The infection efficiency was evaluated following 45 hours by counting the percent of fluorescing cells against noninfected cell cultures. The cytotoxicity of test compounds was evaluated simultaneously at the same, but not infected, SupT1 cellular line using the XTT reagent. To this end, serial ten-fold dilutions of test compounds were prepared (starting with 10 μM to evaluate viral activity or with 100 μM to evaluate cytotoxicity). […] As a result, the values of activity EC50, cytotoxicity CC50, and selectivity index SI were calculated. The test quality was evaluated using the following controls: signal to background ratio, integrase inhibitor raltegravir (1 μM), and reproducibility of the test. […]

For the next data set, the system named is SupT1 cells. The data set can be described thus: Cytotoxicity in non-infected SupT1 cells (XTT reagent). Format: cell-based. As for the experimental part:
as §2

A further data set concerns AD38 cell line. Briefly: Cytotoxicity in AD38 cells (ATPLite). The data set is classed as cell-based, human. Particulars: 3 days. As for the experimental part: as §1
The cytotoxicity of test compounds was determined simultaneously on the same AD38 cell line. The cells were cultivated in a 96-well black plate with a transparent bottom (10^4 cells/well) in complete DMEM/F12 medium containing 2 mM of L-glutamine (Thermo Scientific, Cat #11320033), 10% fetal bovine serum (ThermoFisher Scientific, Cat#), and 1% antibiotic-antimycotic solution (ThermoFisher Scientific, Cat#15240096). The AD38 cells were seeded in 96-well plates (7.5×10^3 cells/well in 100 μl of medium). The solutions of test compounds in DMEM were prepared immediately before use. […] The number of living cells was counted using the ATPLite kit (Perkin Elmer, Boston, USA) in compliance with manufacturer's instructions. […] After additional 5-minute incubation on a rocking platform at 600 rev/min, the plates were kept in dark for 10 minutes, and the luminescence was read using TopCount NXT (Packard, Perkin Elmer). […] CC50 values (Table 2) were then determined using XLfit 4 software.
On the technique in general: Cellular ATP, detected with luciferase, serves as a proxy for viable cell number.

Data set [2] in a line: Acute toxicity of SODF, intragastric administration to rats. Format: in vivo. Particulars: 3000 mg/kg. As for the experimental part:
(§3) Evaluation of SODF acute toxicity and tolerated toxic and lethal doses for single intragastric administration to male and female mice and rats. Evaluation was carried out for 24 male rats weighing 235-260 g and […] female rats weighing 225-250 g as well as for 24 male mice weighing 21-25 g and 24 female mice weighing 20-24 g. All in all, there were 8 groups in each of the four categories. SODF was administered in the largest possible volume 10 ml/kg three times a day at a 40-minute interval. Prior to administration, SODFs were dispersed, then ground in a mortar and mixed with a 0.5% Tween 80 solution to obtain a suspension suitable for intragastric administration to animals at a dose of ≤10 ml/kg. Solutions for administration were always prepared on the day of administration. Prepared SODF suspensions were administered at the same time every day (within a deviation of maximum 4 hours). […] On each of the 14 days following SODF administration, the weights of rats and mice were recorded and the animals were examined to detect any cases of death or abnormal condition. In this way, parameters of acute SODF toxicity were established.

Data set [3] can be described thus: Acute toxicity of SODF, intragastric administration to mice. The data set is classed as in vivo. Conditions: 3000 mg/kg. As for the experimental part: as §3

pEC50: −log10 of the molar value.

For the compound `CC(C)OC(=O)[C@H](C)N[P@](=O)(CO[C@H](C)Cn1cnc2c(N)ncnc21)Oc1ccccc1` [Compound 4f, tenofovir alafenamide hemifumarate], the negative-log EC50 (pEC50) – broadly, the negative decadic logarithm of the EC50, by convention in mol/L – with HBV was 9.15 to 9.52; in data set [1], 7.37. In addition, the CC50 (usually the concentration that lowers cell viability or growth by half) in the data set on SupT1 cells is over 100000 nM; in the data set with AD38 cell line it was 3000 nM.

Regarding `CCC(=O)[N-]S(=O)(=O)c1ccc(NC(=O)Cc2ccc(Br)c(Oc3cc(Cl)cc(C#N)c3)c2F)c(Cl)c1.[Na+]` [Compound 1a, elsulfavirine sodium], the body weight gain entry in data set [2] and in data set [3] was “did not affect body weight gain” throughout.
